We go through 71 compounds from PubChem BioAssay AID179 (DTP/NCI, 2004).

This assay relates to CEM cells HIV-1 protection, formazan growth assay. In words: NCI AIDS Antiviral Assay. The conditions noted are these: for pIC50: measured here: growth of uninfected CEM cells. A digest of the protocol: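 CEM (human) cells, HIV-1 infected vs uninfected, 5-point dosing, formazan growth read-out. Retest threshold 50% protection.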

pEC50, pIC50: −log10 of the molar value. Where “and” joins values, the source holds several entries; their conditions need not be identical. Equal values may be shown once. Calls of active or inactive are those of the source.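 Rule for the calls: active = compounds giving half or more protection of infected cells from virus-caused growth loss, again on retest; inactive = the rest.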 Where a SMILES comes first, the peptide text is derived from it.

For the compound `COc1c(OC2OC(CO)C(O)C(O)C2O)cc2occ(-c3ccc4c(c3)OCO4)c(=O)c2c1O` (configuration not stated), the pEC50 is below 3.70 and the pIC50 was below 3.70. Turning to `C[N+](C)([O-])CCNC(=O)c1cccc2cc3ccccc3nc12`, the result was inactive.

With `CCC12OC(COc3ccccc3)CN1CCS2` (configuration not stated), the pEC50 was below 3.59 and the pIC50 was 3.88. On the same counts, the results for `Clc1cccc(Cl)c1C1SCc2nc3ncccc3n21` (configuration not stated) are 4.49 and 3.98. On the same counts, the results for `O=C1C(Cl)C(c2ccc(O)cc2)N1n1cnc2ccccc2c1=O` (configuration not stated) are below 4.82 and below 4.82. In the case of `CCOC(=O)C(=Cc1cc(OC)ccc1OC)C(=O)OCC`, the pEC50 was below 3.93 and the negative-log IC50 (pIC50) is 4.74. `O=C(c1ccccc1)N1CCc2c([nH]c3ccccc23)C1`: the outcome was inactive.

Take `CCCCNC(=S)Nc1nc(C(=O)NNC(=S)NCc2ccccc2)cs1`: the pEC50 was below 3.90 and the pIC50 was 4.58. On the same counts, the results for `CC(C)=NOC(=O)Nc1cccc2c1OCO2` are below 3.70 and below 3.70.

`CC(C)=CCC/C(C)=C/CC/C(C)=C/OP(=O)(O)OP(=O)(O)O`: the pEC50 was below 3.79 and the pIC50 is below 3.79. As for `COc1ccc(CC(=O)c2cc(OC)c(OC)cc2C)cc1OC`, the pEC50 is below 3.40 and the pIC50 was 4.51.

For the compound `C/C=C/C(C#N)O[Si](C)(C)C` (configuration not stated), the result was inactive. On to `N#Cc1c(N2CCCC2)nsc1Nc1ccccc1`, for which the pEC50 was below 3.70 and the pIC50 was below 3.70. With `CCCCCc1c(CCCC)c(=O)[nH]c2cc(CNCC(OC)OC)ccc12`, the pEC50 is below 3.70 and the pIC50 was 4.96. Consider `CCCCCCCCCCCCCCCCCC(=O)OCC(COC1OC(CS(=O)(=O)O)C(O)C(O)C1O)OC(=O)CCCCCCCCCCCCCCCCC` (configuration not stated), for which the negative logarithm of the EC50 (pEC50) is 4.93 and < 4.69; the result was inactive; the pIC50 is 3.86 and < 4.69. Regarding `O=C1C=C(C23CC4CC(CC(C4)C2)C3)N2CCCc3cccc(c32)N1`, the pEC50 was below 4.00 and the pIC50 is below 4.00. With `CCOC(=O)CC(=O)N(c1ccc(OC)cc1)C(C(=O)OC)c1ccccc1` (configuration not stated), the pEC50 was below 3.70 and the pIC50 is 3.78.

In the case of `O=C(O)c1cccc(-c2c3ccc(=O)cc-3oc3cc(O)ccc23)c1`, the pEC50 was below 3.50 and the pIC50 is 4.27.

On to `CCCCCCCCCCCCCCCC1(OC)C[N+](C)(C)CCO1` (configuration not stated), for which the pEC50 was below 3.70 and the pIC50 is 6.00. `O=C1NS(=O)(=O)c2ccccc21`: the pEC50 was below 2.92 and the pIC50 was below 2.92. As to `CCOc1ccc(N=NC2C(=O)N(C(=O)CC(=O)Nc3ccccc3OC)N=C2C)cc1` (configuration not stated), the pEC50 was below 3.70 and the pIC50 is 5.14.

On to `O=C(Cc1ccccc1)NC(C(=O)c1ccccc1)c1ccccc1` (configuration not stated), for which the pEC50 was below 4.10 and the pIC50 was below 4.10. `CC(=O)N1c2ccccc2C2=NN(C)C(=N)SC21` (configuration not stated): the outcome was inactive. Turning to `Cc1ccc2c(c1)S(=O)(=O)NC2=O`, the pEC50 is below 2.90 and the pIC50 is 2.91.

As for `COc1nc2c(nc(N)n2C2OC(CO)C(O)C(O)C2O)c(=O)[nH]1` (configuration not stated), the outcome was inactive. In the case of `COc1ccccc1/C=C/c1ccnc2ccccc12`, the pEC50 was below 3.70 and the pIC50 was 4.49.

Take `O=C1N(Cc2ccccc2)C2CSCC2N1Cc1ccccc1` (configuration not stated): the pEC50 is below 3.70 and the pIC50 is 4.06.

`N#Cc1c(O)cc(=O)n2c1[nH]c1ccccc12`: the pEC50 was below 3.70 and the pIC50 was 3.76.

Turning to `CC(N)C(=O)NCC(=O)NC(CO)C(=O)NC(CCC(N)=O)C(=O)NC(CCC(=O)O)C(=O)N1CCCC1C(=O)NC(CCCCN)C(=O)NC(CCC(=O)O)C(=O)NC(CCC(N)=O)C(=O)NC(CO)C(=O)NC(CO)C(=O)NC(Cc1ccc(O)cc1)C(=O)NC(CO)C(=O)NC(Cc1cnc[nH]1)C(=O)NC(CO)C(=O)O` (configuration not stated) (H-AGSQEPKEQSSYSHS-OH; configuration not given here), the pEC50 was below 4.00 and the pIC50 is below 4.00. As for `COc1ccc(N2C(=O)C3c4[nH]c5ccccc5c4C4C(C)CCCC4C3C2=O)cc1` (configuration not stated), the pEC50 is below 3.70 and the negative-log IC50 (pIC50) was 5.09.

For the compound `O=C1Cn2nc(C(=O)c3ccccc3C#Cc3ccccc3)c(-c3ccccc3)c2-c2ccccc21`, the pEC50 is below 4.41 and the pIC50 is below 4.41. As to `O=C1C2C3C4C1C1C2[C@H](OCc2ccccc2)C3C1[C@H]4OCc1ccccc1` (some centres not stated), the pEC50 was below 3.70 and the pIC50 is 4.37. On the same counts, the results for `Cn1c(N)c(Br)c(=O)n(C)c1=O` are below 3.70 and below 3.70.

On to `O=C(O)CCCCCCCc1cc(O)ccc1[N+](=O)[O-]`, for which the pEC50 is below 3.70 and the pIC50 is below 3.70. As for `COc1ccc(-n2sc3ncccc3c2=O)cc1`, the pEC50 is below 4.74 and the pIC50 is 5.22.

In the case of `CCOC(=O)CC1COc2ccc3c(c21)OCO3` (configuration not stated), the pEC50 was below 3.28 and the pIC50 is 3.47. Consider `CC1=NC(C)(C)[N+]([O-])=C1`, for which the outcome was inactive. As for `NC1(CCCCCCCCCCC(=O)O)CNCCNCCNCCNC1`, the pEC50 was below 3.36 and the pIC50 is 5.46. On the same counts, the results for `CCc1c(C)c(C#N)c(=S)n(C2OC(COC(C)=O)C(OC(C)=O)C(OC(C)=O)C2OC(C)=O)c1C` (configuration not stated) are below 3.70 and below 3.70. Take `CCC(C)C(NC(=O)CNC(=O)C(Cc1c[nH]c2ccccc12)NC(=O)C(NC(=O)C(NC(=O)C(N)CC(C)C)C(C)O)C(C)C)C(=O)NC(CCCCN)C(=O)NC(CCC(N)=O)C(=O)NC(CC(C)C)C(=O)NC(CCC(N)=O)C(=O)NC(C)C(=O)NC(CCCN=C(N)N)C(N)=O` (configuration not stated) (H-LTVWGIKQLQAR-NH2; configuration not given here): the pEC50 was below 4.30 and the negative-log IC50 (pIC50) was below 4.30. On to `O=C1CN(c2ccccc2)C(=O)CN1CCN1CC(=O)N(c2ccccc2)CC1=O`, for which the pEC50 was below 3.70 and the pIC50 was below 3.70. Turning to `COc1ccc(C(=O)N2CCN(c3ccc4c(c3)OCC(=O)N4)CC2)cc1`, the pEC50 is below 3.70 and the pIC50 was below 3.70. Consider `OC1OC(c2ccco2)C(F)(F)C(F)(F)C1(F)F` (configuration not stated), for which the pEC50 was below 3.70 and the pIC50 is 3.99. As for `OCC(O)C(O)C(O)C(O)c1nn[nH]n1` (configuration not stated), the outcome was inactive. For `CCCNC(=O)c1cc2ccccc2cc1C(=O)OC`, the pEC50 was below 5.27 and the pIC50 was below 5.27. With `C/C(CC(=O)CCC(=O)Nc1cccc(C(F)(F)F)c1)=N\NC(=O)NN`, the pEC50 was below 5.00 and the pIC50 was below 5.00. In the case of `Cc1cc(C)n2c(C)nnc2c1`, the pEC50 was below 2.81 and the pIC50 is 2.95. Turning to `O=C(c1cccnc1)c1cc(-c2ccccn2)c(=O)n2ccccc12`, the pEC50 was below 3.70 and the pIC50 is below 3.70. As to `CC(=O)C(=[N+]=[N-])C(=O)OC(C)(C)C#N`, the pEC50 is below 3.70 and the pIC50 is below 3.70. As to `COC(=O)C1Cc2c([nH]c3ccccc23)C=N1` (configuration not stated), the outcome was inactive. As to `Cc1c(C)c2c(c(N)c1C#N)C(=O)N(N)C2=O`, the pEC50 is below 3.70 and the pIC50 is 3.88. Consider `Cc1cc2c(cc1C)NC(=O)C(NC(=O)/C=C/c1ccccc1)C=N2` (configuration not stated), for which the pEC50 is below 4.25 and the pIC50 was 4.41. Consider `Cc1ccc(-c2cc(=O)c3cc(C)c(C)c(C(=O)O)c3o2)cc1`, for which the outcome was inactive. For the compound `CC1(C)N(OC2CCCCO2)C(c2ccccc2)C(c2ccccc2)=[N+]1[O-]` (configuration not stated), the pEC50 is below 3.70 and the pIC50 was 4.45. Take `N#CC(C#N)=Cc1ccccc1Br`: the pEC50 is below 3.72 and the pIC50 is 5.48. `CCN(/N=C1\CC2C=CCN(C2)C(=O)Cc2c1[nH]c1ccccc21)S(=O)(=O)c1ccc(C)cc1` (configuration not stated): the pEC50 was below 4.20 and the pIC50 is 4.22. On the same counts, the results for `Cc1ccc([P+](Cc2ccccc2)(c2ccccc2)c2ccc(C)cc2)cc1` are below 3.70 and 6.13. On the same counts, the results for `CCN(CC)c1ccc(N=Nc2ccc(N=Nc3c(S(=O)(=O)O)cc4ccc(N)cc4c3O)c(OCCO)c2)cc1` are below 4.83 and below 4.83. On the same counts, the results for `CC12C(=O)NC(c3ccncc3)(c3ccccc31)C1C(=O)N(c3ccccc3)C(=O)C12` (configuration not stated) are below 3.70 and 3.72. As to `Cc1ccc(SCC(CSCCO)OCn2cnc3c2NC(N)=NC32OCCO2)cc1` (configuration not stated), the pEC50 was below 3.70 and the pIC50 was below 3.70. With `N#C/C(=C\c1cc(Br)c(O)c(Br)c1)c1cccnc1`, the pEC50 was below 4.00 and the pIC50 is 4.35. `CCCCNC(=O)/C(=C\c1ccc(OC)c(OC)c1)NC(=O)c1ccccc1`: the pEC50 is below 3.70 and the pIC50 is below 3.70.

On to `Cn1ccnc1.[O-][Cl+3]([O-])([O-])[O-].[Pt+2].c1ccc(-c2cccc(-c3ccccn3)n2)nc1`, for which the pEC50 is below 3.70 and the pIC50 was 4.87.

For `NC(=O)C1N=NSC1NC(=O)c1ccc([N+](=O)[O-])cc1` (configuration not stated), the pEC50 was below 3.70 and the pIC50 is 4.57. As for `COc1ccc(C2C=C(c3ccc(C)cc3)N(c3ccc(OC)cc3[N+](=O)[O-])C3C(=O)OC(=O)C23)c(OC)c1` (configuration not stated), the pEC50 is below 3.70 and the pIC50 is 4.50.

Turning to `S=C(NNC1=NCCN1)Nc1ccccc1`, the pEC50 was below 3.70 and the pIC50 is 5.55. As to `[N-]=[N+]=NC1CC(n2cc(Cc3ccccc3)c(=O)[nH]c2=O)OC1CO` (configuration not stated), the outcome was inactive.

In the case of `O=C1C=CC(=O)c2c(-c3ccccc3[N+](=O)[O-])cc(Cl)nc21`, the result was inactive. `NCCCN1CCN(CCCNc2ccc3ncn4c5ccccc5c(=O)c2c34)CC1`: the pEC50 is below 4.60 and the pIC50 was 5.92. `CCOC(=N)CNC(=O)c1ccccc1`: the pEC50 was below 3.70 and the pIC50 is below 3.70. On to `C[C@@H]1CC(=O)[C@@]2(C)[C@](O)(CCC3O[C@]32C)[C@@]12CC(c1ccoc1)OC2=O` (some centres not stated), for which the pEC50 is below 3.70 and the pIC50 was 4.51.
